Reference: patent publication US10932454B2, “LDL receptor gene knockout, genetically-engineered hamster” (HEBEI INVIVO BIOTECH INC, priority 2016, dated 2021)
“Also recorded” adds a separate entry of the source.

Key:
[1] = system: LDL-R gene deficient Δ194 bp heterozygous hamsters; experiment: High-fat diet feeding with intragastric ezetimibe in LDL-R+/- hamsters; plasma lipids, lipoprotein FPLC, body weight; type: in vivo, golden Syrian hamster
Protocol: (§1) The high-fat diet used in the study was a normal rodent diet containing 0.5% cholesterol and 10% lard. The dose of ezetimibe was 2 mg/kg body weight, administered by intragastric administration, and the control group was given tri-distilled water. Plasma was collected before high-fat diet feeding, after two weeks of high-fat diet feeding, before administration and after two weeks of administration, respectively. The hamsters were fasted for 12 hours at night, anesthetized by intraperitoneal injection of pentobarbital sodium, and about 1 ml of blood was collected from the posterior orbital vein, and heparin was used for anticoagulation. A plasma triglyceride assay kit and a total cholesterol assay kit (Biosino Bio-Technology and Science Inc.) were used to detect plasma triglyceride and total cholesterol levels. High-density lipoprotein cholesterol (HDL-C) was tested for cholesterol levels after removal of apoB-containing lipoproteins by polyethylene glycol precipitation. The lipid component of plasma lipoprotein was detected by using fast protein liquid chromatography (FPLC) instrument of Amersham Biocsciences, USA, and the plasma lipoprotein fraction was firstly separated by superose 6 HR10/30 column. 200 μl of plasma was loaded through a 0.22 μm syringe filter, and the separated components were automatically collected at a rate of 0.5 mL per minute, 500 μl per component, for a total of 35 components. The above cholesterol detection kit was applied to each component to detect the cholesterol content, and a plasma lipoprotein profile was prepared.

[2] = system: wild type control hamsters; experiment: High-fat diet feeding with intragastric ezetimibe in wild type hamsters; plasma lipids; type: in vivo, golden Syrian hamster; settings: WT hamsters, high-fat diet plus 2 mg/kg ezetimibe intragastric daily for two weeks
Protocol: as §1, with “200 μl of plasma was loaded through a 0.22 μm syringe filter, and the separated components were automatically collected at a rate of 0.5 mL per minute, 500 μl per component, for a total of 35 components. The above cholesterol detection kit was applied to each component to detect the cholesterol content, and a plasma lipoprotein profile was prepared.” left out

[3] = 2 mg/kg intragastric daily, two weeks, high-fat diet

O=C1[C@H](CC[C@H](O)c2ccc(F)cc2)[C@@H](c2ccc(O)cc2)N1c1ccc(F)cc1 [ezetimibe]
effect on hyperlipidemia of LDL-R knockout hamsters ([1]; 2 mg/kg intragastric daily, high-fat diet): significantly reverses hyperlipidemia; also recorded: significantly reversed hypelipidemia | HDL cholesterol in plasma (FPLC) [1, 3]: not significantly changed; also recorded: little effect on HDL | VLDL and LDL cholesterol in plasma (FPLC) [1, 3]: decrease of VLDL-C and LDL-C; also recorded: mainly decreased VLDL and LDL in plasma | body weight, ezetimibe-administered group vs high-fat diet feeding group ([1]; 2 mg/kg intragastric daily, two weeks, high-fat diet, each group of hamsters (WT and LDL-R+/-)): no significant difference | plasma cholesterol change after administration (in words) ([1]; LDL-R heterozygous hamster on high-fat diet (0.5% cholesterol, 10% fat), ezetimibe 2 mg/kg): decreased to the level of the wild type hamster fed on common diet | triglyceride level after administration ([1]; LDL-R+/- hamsters, high-fat diet plus 2 mg/kg ezetimibe intragastric daily for two weeks, high-fat diet only 658 mg/dL): 225 mg/dL | plasma cholesterol level after administration ([1]; LDL-R+/- hamsters, high-fat diet plus 2 mg/kg ezetimibe intragastric daily for two weeks, high-fat diet only 1864 mg/dL): 157 mg/dL | triglyceride level after administration ([2]; high-fat diet only 413 mg/dL): 157 mg/dL | plasma cholesterol level after administration ([2]; high-fat diet only 513 mg/dL): 111 mg/dL
